Here are results for 18 molecules from US12275729B2 (Merck Sharp & Dohme LLC, priority 2017, dated 2025).

SMILES strings stand for the structures.

In assay [1] the target is T1, IDO1 (Homo sapiens, UniProt P14902). As to the kind of experiment: IDO1 Human Whole Blood Assay. More on the design: Human whole blood was drawn in sodium heparin coated tubes from healthy internal donors; from tissue; host or cells: human whole blood from healthy donors, stimulated with LPS and IFNγ. Conditions: LPS and IFNγ stimulated. The assay is classed as cell-based.
T1 sequence (P14902 whole entry): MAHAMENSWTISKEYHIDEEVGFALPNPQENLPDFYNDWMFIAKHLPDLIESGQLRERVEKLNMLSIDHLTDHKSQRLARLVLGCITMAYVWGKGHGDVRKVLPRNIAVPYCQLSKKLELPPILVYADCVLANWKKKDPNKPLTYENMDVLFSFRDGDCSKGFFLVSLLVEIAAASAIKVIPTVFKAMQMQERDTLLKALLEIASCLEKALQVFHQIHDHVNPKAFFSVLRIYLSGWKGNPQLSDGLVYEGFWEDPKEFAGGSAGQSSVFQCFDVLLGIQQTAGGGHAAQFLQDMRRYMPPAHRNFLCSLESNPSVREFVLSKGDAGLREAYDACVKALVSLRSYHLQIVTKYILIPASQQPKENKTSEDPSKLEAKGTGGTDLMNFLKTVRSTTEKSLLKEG

Assay [2] has as its target T1, IDO1. As to the kind of experiment: IDO1 Cellular Assay in HeLa Cells Stimulated with IFNγ. As to conditions: read-out: Hela IC50. The class given is cell-based.

With `Cc1nccc(N2CCCc3nc(C(C)NC(=O)c4ccc(Cl)cc4)ccc32)n1` (stereo not shown) [Example 250, 4-chloro-N-(1-(5-(2-methylpyrimidin-4-yl)-5,6,7,8-tetrahydro-1,5-naphthyridin-2-yl)ethyl)benzamide], the IC50 at IDO1 [1] came to 32 nM; on IDO1 [2] (about 48 hours), 2 nM.

On to `Cc1nccc(N2CCCc3nc(C(C)C(=O)Nc4ccc(Cl)cc4)ccc32)n1` (stereo not shown) [Example 362, N-(4-chlorophenyl)-2-(5-(2-methylpyrimidin-4-yl)-5,6,7,8-tetrahydro-1,5-naphthyridin-2-yl)propanamide], for which the IC50 on IDO1 [1] came to 984 nM; at IDO1 [2], 0.69 nM.

Take `Cc1cccc(N2CCCc3nc(C4(NC(=O)c5ccc(Cl)cc5)CCC4)ccc32)n1` [Example 405, 4-chloro-N-(1-(5-(6-methylpyridin-2-yl)-5,6,7,8-tetrahydro-1,5-naphthyridin-2-yl)cyclobutyl)benzamide]: the half-maximal inhibitory concentration (IC50) was 42 nM at IDO1 [1] and 1.91 nM on IDO1 [2] (about 48 hours).

On to `Cc1nc(N2CCCc3nc(C(C)NC(=O)c4ccc(Cl)cc4)ccc32)c2ccccc2n1` (stereo not shown) [Example 357, 2-(1-(4-chlorobenzamido)ethyl)-5-(2-methylquinazolin-4-yl)-5,6,7,8-tetrahydro-1,5-naphthyridin-1-ium 2,2,2-trifluoroacetate], for which the IC50 against IDO1 [1] was 436 nM; at IDO1 [2], 27.9 nM.

In the case of `CC(NC(=O)c1ccc(F)cc1)c1ccc2c(n1)CCCN2C(=O)OC(C)(C)C(F)(F)F` (stereo not shown) [Example 312], the IC50 at IDO1 [1] came to 47 nM; at IDO1 [2], 9.87 nM.

In the case of `Cn1ccc(C(=O)N2CCCc3cc(C4(C(=O)Nc5ccc(F)cn5)CCC4)ccc32)n1` [Example 120, N-(5-fluoropyridin-2-yl)-1-[1-(1-methyl-1H-pyrazole-3-carbonyl)-1,2,3,4-tetrahydroquinolin-6-yl]cyclobutane-1-carboxamide], the results for the IC50 against IDO1 [1] and at IDO1 [2] (about 48 hours) were 214 nM and 1.4 nM, respectively.

For the molecule `Cc1nccc(N2CCCc3nc(C(C)(C)C(=O)Nc4ccc(Cl)c(F)c4)ccc32)n1` [Example 391, N-(4-chloro-3-fluorophenyl)-2-methyl-2-(5-(2-methylpyrimidin-4-yl)-5,6,7,8-tetrahydro-1,5-naphthyridin-2-yl)propanamide], the IC50 was 101 nM against IDO1 [1] and 5.7 nM at IDO1 [2] (about 48 hours).

Turning to `C[C@@H](C(=O)Nc1ccc(Cl)cc1)c1ccc2c(c1)CCCN2C(=O)c1cccc(Cl)c1` (single isomer, unassigned) [Example 57], the IC50 came to 51 nM against IDO1 [1] and 2.3 nM on IDO1 [2] (about 48 hours).

For the molecule `CC(NC(=O)c1ccc(F)cc1)c1ccc2c(n1)CCCN2Cc1cccc(Cl)c1` (stereo not shown) [Example 229, N-(1-{5-[(3-chlorophenyl)methyl]-5,6,7,8-tetrahydro-1,5-naphthyridin-2-yl}ethyl)-4-fluorobenzamide], the values for the IC50 on IDO1 [1] and at IDO1 [2] (about 48 hours) were 245 nM and 3.5 nM, respectively.

As to `Cc1nccc(N2CCCc3nc(C4(C(=O)Nc5ccc(F)cc5)CC(F)(F)C4)ccc32)n1` [Example 420, 3,3-difluoro-N-(4-fluorophenyl)-1-(5-(2-methylpyrimidin-4-yl)-5,6,7,8-tetrahydro-1,5-naphthyridin-2-yl)cyclobutanecarboxamide], the IC50 against IDO1 [1] stood at 12 nM; at IDO1 [2], 1.09 nM; on IDO1 [2] (value in running text), 1 nM.

For `COCCOC(=O)N1CCCc2nc(C(C)NC(=O)c3ccc(Cl)cc3)ccc21` (stereo not shown) [Example 212, 2-methoxyethyl 6-{1-[(4-chlorobenzene-1-carbonyl)amino]ethyl}-3,4-dihydro-1,5-naphthyridine-1(2H)-carboxylate], the IC50 worked out at 35 nM against IDO1 [1] and 3 nM at IDO1 [2] (about 48 hours).

Consider `O=C(Nc1ccc(Cl)cc1)C1(c2ccc3c(n2)CCN3c2ccccn2)CCC1` [Example 272, N-(4-chlorophenyl)-1-[1-(pyridin-2-yl)-2,3-dihydro-1H-pyrrolo[3,2-b]pyridin-5-yl]cyclobutane-1-carboxamide], for which the IC50 worked out at 336 nM on IDO1 [1] and 1.9 nM at IDO1 [2] (about 48 hours).

As to `C[C@@H](NC(=O)c1ccc(F)cc1)c1ccc2c(n1)CCCN2C(=O)[C@H]1CCCO1` [Example 145, 4-fluoro-N-[(1R)-1-{5-[(2R)-oxolane-2-carbonyl]-5,6,7,8-tetrahydro-1,5-naphthyridin-2-yl}ethyl]benzamide], the IC50 stood at 125 nM against IDO1 [1] and 8 nM on IDO1 [2] (about 48 hours).

`CC(C(=O)Nc1ccc(F)cc1)c1ccc2c(n1)CCCN2c1ccnc(C2CC2)n1` (stereo not shown) [Example 365, 2-(5-(2-cyclopropylpyrimidin-4-yl)-5,6,7,8-tetrahydro-1,5-naphthyridin-2-yl)-N-(4-fluorophenyl)propanamide]: the IC50 on IDO1 [1] was determined as 254 nM; on IDO1 [2], 3.62 nM.

Take `O=C(OC1CC1)N1CCc2cc(C3(C(=O)Nc4ccc(Cl)cc4)CCC3)ccc21` [Example 273, cyclopropyl 5-{1-[(4-chlorophenyl)carbamoyl]cyclobutyl}-2,3-dihydro-1H-indole-1-carboxylate]: the results for the IC50 on IDO1 [1] and on IDO1 [2] (about 48 hours) were 90 nM and 2 nM, respectively.

Turning to `CC(C(=O)Nc1ccc(F)cc1)c1ccc2c(c1)CCCN2C(=O)c1cccc(Cl)c1` (racemic) [Example 50, 2-[1-(3-chlorobenzene-1-carbonyl)-1,2,3,4-tetrahydroquinolin-6-yl]-N-(4-fluorophenyl)propanamide], the IC50 came out at 43 nM against IDO1 [1] and 2.5 nM at IDO1 [2] (about 48 hours).

Consider `CC(NC(=O)c1ccc(F)cc1)c1ccc2c(n1)CCCN2C(=O)c1ccn(C)n1` (stereo not shown) [Example 138, 4-fluoro-N-{1-[5-(1-methyl-1H-pyrazole-3-carbonyl)-5,6,7,8-tetrahydro-1,5-naphthyridin-2-yl]ethyl}benzamide], for which the IC50 against IDO1 [1] came out at 67 nM; on IDO1 [2] (about 48 hours), 6.3 nM.

With `CC(C(=O)Nc1ccc(F)cc1)c1ccc2c(c1)CCCN2C(=O)c1cc(C(F)F)ccn1` (stereo not shown) [Example 38, 2-{1-[4-(difluoromethyl)pyridine-2-carbonyl]-1,2,3,4-tetrahydroquinolin-6-yl}-N-(4-fluorophenyl)propanamide], the IC50 is 36 nM on IDO1 [1] and 5.7 nM at IDO1 [2] (about 48 hours).
